Experimental data reported in ChEMBL document CHEMBL1201862, “PubChem BioAssay data set” (2004).
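Cultured in 96-well plates, cells were exposed to test compound for 48 hours across five concentrations. Here, GI50 denotes the concentration required for 50% inhibition of growth.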 The source made the active and inactive calls. No stated cut-off is given here; in the data, active = GI50 up to about 1.1 µM and inactive = higher.

Experiments:
Experiment in all cases: NCI-60 cell line screen, 48 h
[1] = system: 786-0
[2] = system: A549
[3] = system: ACHN
[4] = system: CAKI-1
[5] = system: CCRF-CEM
[6] = system: COLO 205
[7] = system: DLD-1
[8] = system: DMS-114
[9] = system: DMS-273
[10] = system: EKVX
[11] = system: HCC 2998
[12] = system: HCT-116
[13] = system: HCT-15
[14] = system: HL-60
[15] = system: HOP-18
[16] = system: HOP-62
[17] = system: HT-29
[18] = system: IGROV-1
[19] = system: K562
[20] = system: KM-20L2
[21] = system: LOX IMVI
[22] = system: LXFL 529
[23] = system: M14
[24] = system: M19-MEL
[25] = system: MOLT-4
[26] = system: NCI-H23
[27] = system: NCI-H460
[28] = system: OVCAR-3
[29] = system: OVCAR-4
[30] = system: OVCAR-8
[31] = system: RXF 631
[32] = system: SF-268
[33] = system: SF-295
[34] = system: SF-539
[35] = system: SK-MEL-28
[36] = system: SK-MEL-5
[37] = system: SK-OV-3
[38] = system: SN12C
[39] = system: SNB-19
[40] = system: SNB-75
[41] = system: SNB-78
[42] = system: SW-620
[43] = system: TK-10
[44] = system: U-251
[45] = system: UACC-62
[46] = system: UO-31
[47] = system: XF498
[48] = system: A498
[49] = system: HOP-92
[50] = system: KM12
[51] = system: Malme-3M
[52] = system: NCI-H522
[53] = system: OVCAR-5
[54] = system: RPMI-8226
[55] = system: RXF 393
[56] = system: SK-MEL-2
[57] = system: UACC-257

Measured: GI50

CCCCN1C(=O)C2c3[nH]c4ccccc4c3C3CCCCC3C2C1=O.CCCCN1C(=O)C2c3[nH]c4ccccc4c3[C@@H]3CCCCC3C2C1=O (stereo unspecified)
29.4 µM: [13]
inactive: [1] 4.41 µM | [2] 13.9 µM | [3] 7.36 µM | [4] 6.18 µM | [5] 16.4 µM | [6] 26.7 µM | [7] 12.9 µM | [8] 12.9 µM | [9] 10.3 µM | [10] 21.4 µM | [11] 8.85 µM | [12] 9.42 µM | [14] 13.6 µM | [15] 2.26 µM | [16] 6.4 µM | [17] 28.8 µM | [18] 19.1 µM | [19] 14.7 µM | [20] 36.6 µM | [21] 10.9 µM | [22] 13.6 µM | [23] 13.4 µM | [24] 37.2 µM | [25] 5.69 µM | [26] 16 µM | [27] 10.5 µM | [28] 12.4 µM | [29] 2.38 µM | [30] 11.8 µM | [31] 13.7 µM | [32] 17.9 µM | [33] 7.93 µM | [34] 14.8 µM | [35] 29.6 µM | [36] 23.6 µM | [37] 22.3 µM | [38] 35.9 µM | [39] 23.4 µM | [40] 7.11 µM | [41] 15 µM | [42] 37.8 µM | [43] 13.7 µM | [44] 16.4 µM | [45] 19.1 µM | [46] 14.8 µM | [47] 12.5 µM

COc1ccc(/C=[N+](\[O-])[C@H](COCc2ccccc2)c2ccccc2)cc1
inactive: [1] > 100 µM | [48] > 100 µM | [2] > 10 µM | [3] 51.8 µM | [5] 35.7 µM | [6] 84.3 µM | [7] 89.1 µM | [8] > 100 µM | [9] > 100 µM | [10] 30.1 µM | [11] > 100 µM | [12] 43.3 µM | [14] 25 µM | [15] 57.4 µM | [16] > 100 µM | [49] 23.9 µM | [17] 52.1 µM | [18] > 100 µM | [19] 45.3 µM | [20] > 100 µM | [50] 89.1 µM | [21] 89.9 µM | [22] 77.8 µM | [25] 25.2 µM | [51] 42.1 µM | [26] > 100 µM | [27] 63.7 µM | [52] 41.1 µM | [28] 44.4 µM | [53] > 100 µM | [30] > 100 µM | [54] 15.7 µM | [55] 98.9 µM | [31] > 100 µM | [32] 67.5 µM | [33] 66.8 µM | [34] > 100 µM | [35] 38 µM | [56] 30.3 µM | [37] > 100 µM | [39] 46.7 µM | [40] > 100 µM | [41] > 100 µM | [42] 92 µM | [43] > 100 µM | [44] > 100 µM | [57] > 100 µM | [46] 17.3 µM | [47] > 100 µM

CC(C)c1ccc(C(c2ccc(OCC(=O)O)cc2)c2ccc(C(C)C)cc(=O)c2O)c(O)c(=O)c1
inactive: [1] 6.47 µM | [48] 23.9 µM | [2] 3.48 µM | [3] 4.66 µM | [4] 3.82 µM | [5] 4.05 µM | [6] 3.14 µM | [7] 3.48 µM | [8] 2.92 µM | [9] 3.45 µM | [10] 4.93 µM | [11] 4.94 µM | [12] 3.76 µM | [14] 3.27 µM | [15] 9.89 µM | [16] 2.79 µM | [17] 3.92 µM | [18] 4.33 µM | [19] 3.41 µM | [20] 3.54 µM | [21] 3.71 µM | [22] 4.5 µM | [23] 3.18 µM | [24] 4.94 µM | [25] 3.73 µM | [26] 3.78 µM | [27] 2.83 µM | [28] 2.77 µM | [29] 3.61 µM | [30] 4.44 µM | [54] 4.38 µM | [55] 10.2 µM | [31] 5.08 µM | [33] 4.4 µM | [34] 6.05 µM | [35] 4.81 µM | [36] 3.22 µM | [37] 6.81 µM | [38] 4.15 µM | [39] 5.89 µM | [40] 3.29 µM | [41] 6.79 µM | [42] 4.8 µM | [43] 5.3 µM | [44] 5.3 µM | [57] 5.6 µM | [45] 3.55 µM | [47] 2.63 µM
active: [49] 0.0478 µM
3.56 µM: [13]
